# Measurements taken from patent US20040033213A1, “Methods of modulating dendritic cells using adjuvants” (Corixa Corporation, priority 2002, published 2004).
# Assays:
# Format in all cases: cell-based
# [1] = tested on: Human d7 Cultured Dendritic Cells; assay: Flow cytometry phenotype analysis of human d7 cultured dendritic cells after 24 h stimulation; conditions: LPS 10 ng/ml, others 100 ng/ml; for HLA-DR MFI: 7 day DCs, 24 h stimulation
# [2] = tested on: murine bone marrow derived DCs + D011.10 T cells; assay: APC function of ova-pulsed, lipid A potentiated murine DCs co-cultured with D011.10 T cells (cytokine ELISA)
# From the text: These antigen pulsed, lipid A potentiated cells were then washed thoroughly and titered against ova-specific T cell effector cells in vitro at an APC: T cell ratio titration of 1:1 out to as high as 1:512. The effector T cells in this in vitro assay were the antigen naive, but antigen (ova) specific, MHC restricted I-A^d splenic T cells from transgenic D011.10 mice.
# D011.10 TCR-transgenic mice were used in these experiments as donors of antigen specific naive T cells. In their germline DNA these mice contain rearranged TCR-Vα and -Vβ genes that encode a T cell receptor (TCR) specific for the ovalbumin peptide 323-339 bound to IA^d (Balb/c) Class II MHC molecules. The transgenic ova peptide specific TCR can be detected with the KJ1-26 monoclonal antibody (mAb) that binds only to this particular TCR heterodimer. These cells provide a ready source of “normal” antigen (ova)-specific effector T cells. Effective antigen-mediated APC stimulation of those T cells is generally measured by ELISA quantitation of IL-2 or IFN-γ in the culture supernatants of DC+D011.10 T cells after 24-48 hours of incubation.
# In one experiment, murine bone marrow derived DCs (6 day cultures) were pulsed with ova (50 μg/ml-5×10^5 cells/ml) and then potentiated overnight with LPS(R595), MPL® immunostimulant-S, RC-527, RC-529 or RC-544 prior to being cultured together with naive D011.10 effector T cells (FIGS. 1-7). The APC function of these DCs as measured by their ability to stimulate IL-2, IFN-γ IL-12 (p70) and IL-12 (p40) secretion in the DC+D011.10 co-culture systems was analyzed. All of the data shown in FIGS. 1-7 was developed from DCs maintained in lipid A induction cultures for either 15 or 38 hours prior to use in the T cell assay.
# [3] = tested on: cultured human DCs + autologous T cells
# [4] = tested on: cultured human dendritic cells (DC); assay: Flow cytometry of cell surface activation markers on human DCs restimulated 72 hours with AGPs (titration)
# Description: Dendritic cells are developed in-vitro from human CD14+ monocyte precursors using standard 7 day GM-CSF ([…]) and IL-4 ([…]) culture conditions. The cultured DCs are >90% CD11c^+/HLA-DR^+/lineage^− by flow cytometry analysis. FIGS. 15-18 show the results of flow cytometry analysis of gated CD11c^+/HLA-DR^+/lineage^− human DCs after they were restimulated in-vitro for 72 hours in the presence of selected AGPs at a titration range of 0.1 μg/ml-2 μg/ml. Data is expressed as the percent of gated DCs which are positive for the indicated marker (y-axis) versus the logo10 of the AGP or lipid A concentration. R595 LPS was used in each induction at 10 ng/ml as a positive control—the negative control was unstimulated human dendritic cells cultured for 72 hours in the same medium conditions used for AGP stimulation. Data was analyzed using non-linear regression analysis—all data was modeled using a 3rd order polynomial to determiine the best curve fit.
# [5] = single analysis, one normal donor
smiles,measurement,setting,value
CCCCCCCCCCCC(CC(=O)NC(COC1OC(CO)C(OP(=O)(O)O)C(OC(=O)CC(CCCCCCCCCCC)OC(=O)CCCCCCCCC)C1NC(=O)CC(CCCCCCCCCCC)OC(=O)CCCCCCCCC)C(=O)O)OC(=O)CCCCCCCCC (centres unmarked) [RC-527],CD 1a % positive cells,"[1]; Exp. 091698, 24 h",93.5%
same,CD 1a MFI,"[1]; Exp. 091698, 24 h",8.71
same,CD 4 % positive cells,"[1]; Exp. 091698, 24 h",69.5%
same,CD 4 MFI,"[1]; Exp. 091698, 24 h",2.33
same,CD 14 % positive cells,"[1]; Exp. 091698, 24 h",4.2%
same,CD 35 % positive cells,"[1]; Exp. 091698, 24 h",49.4%
same,CD 35 MFI,"[1]; Exp. 091698, 24 h",2.74
same,CD 40 MFI,"[1]; Exp. 091698, 24 h",43.0
same,CD 44 MFI,"[1]; Exp. 091698, 24 h",329
same,CD 54 MFI,"[1]; Exp. 091698, 24 h",34.9
same,CD 62 L % positive cells,"[1]; Exp. 091698, 24 h",11.2%
same,CD 69 % positive cells,"[1]; Exp. 091698, 24 h",16.1%
same,CD 80 % positive cells,"[1]; Exp. 091698, 24 h",99.5%
same,CD 80 MFI,"[1]; Exp. 091698, 24 h",8.37
same,CD 83 % positive cells,"[1]; Exp. 091698, 24 h",97.0%
same,CD 83 MFI,"[1]; Exp. 091698, 24 h",3.52
same,CD 86 % positive cells,"[1]; Exp. 091698, 24 h",99.8%
same,CD 86 MFI,"[1]; Exp. 091698, 24 h",18.1
same,CD 95 % positive cells,"[1]; Exp. 091698, 24 h",93.6%
same,CD 95 MFI,"[1]; Exp. 091698, 24 h",1.61
same,HLA-DR MFI,[1]; Exp. 091698,74.2
same,CD 1a % positive cells,"[1]; Exp. 092398, 24 h",84.1%
same,CD 1a MFI,"[1]; Exp. 092398, 24 h",5.57
same,CD 4 % positive cells,"[1]; Exp. 092398, 24 h",69.5%
same,CD 4 MFI,"[1]; Exp. 092398, 24 h",2.66
same,CD 14 % positive cells,"[1]; Exp. 092398, 24 h",4.3%
same,CD 35 % positive cells,"[1]; Exp. 092398, 24 h",65.1%
same,CD 35 MFI,"[1]; Exp. 092398, 24 h",3.02
same,CD 40 MFI,"[1]; Exp. 092398, 24 h",35.0
same,CD 54 MFI,"[1]; Exp. 092398, 24 h",42.6
same,CD 62 L % positive cells,"[1]; Exp. 092398, 24 h",13.6%
same,CD 69 % positive cells,"[1]; Exp. 092398, 24 h",10.5%
same,CD 80 % positive cells,"[1]; Exp. 092398, 24 h",99.4%
same,CD 80 MFI,"[1]; Exp. 092398, 24 h",12.7
same,CD 83 % positive cells,"[1]; Exp. 092398, 24 h",97.6%
same,CD 83 MFI,"[1]; Exp. 092398, 24 h",3.57
same,CD 86 % positive cells,"[1]; Exp. 092398, 24 h",99.9%
same,CD 86 MFI,"[1]; Exp. 092398, 24 h",28.0
same,CD 95 % positive cells,"[1]; Exp. 092398, 24 h",94.8%
same,CD 95 MFI,"[1]; Exp. 092398, 24 h",1.78
same,αC5aR + GAR Alexa % positive cells,"[1]; Exp. 092398, 24 h",42.3%
same,CD 44 MFI,"[1]; Exp. 092398, 24 h, values printed with a trailing +",499+
same,GAR-Alexa % positive cells,"[1]; Exp. 092398, 24 h, secondary reagent staining",2.9%
same,HLA-DR MFI,[1]; Exp. 092398,107.8
same,CCR 6 % positive cells,"[1]; Exp. 093098, 24 h",4.0%
same,CD 1a % positive cells,"[1]; Exp. 093098, 24 h",80.3%
same,CD 1a MFI,"[1]; Exp. 093098, 24 h",6.83
same,CD 3 % positive cells,"[1]; Exp. 093098, 24 h",28.5%
same,CD 3 MFI,"[1]; Exp. 093098, 24 h",3.89
same,CD 4 % positive cells,"[1]; Exp. 093098, 24 h",75.2%
same,CD 4 MFI,"[1]; Exp. 093098, 24 h",3.06
same,CD 11c % positive cells,"[1]; Exp. 093098, 24 h",92.6%
same,CD 11c MFI,"[1]; Exp. 093098, 24 h",6.77
same,CD 14 % positive cells,"[1]; Exp. 093098, 24 h",3.3%
same,CD 40 MFI,"[1]; Exp. 093098, 24 h",34.9
same,CD 54 MFI,"[1]; Exp. 093098, 24 h",47.0
same,CD 62 L % positive cells,"[1]; Exp. 093098, 24 h",3.0%
same,CD 80 % positive cells,"[1]; Exp. 093098, 24 h",98.9%
same,CD 80 MFI,"[1]; Exp. 093098, 24 h",13.1
same,CD 83 % positive cells,"[1]; Exp. 093098, 24 h",92.6%
same,CD 83 MFI,"[1]; Exp. 093098, 24 h",3.63
same,CD 86 % positive cells,"[1]; Exp. 093098, 24 h",99.5%
same,CD 86 MFI,"[1]; Exp. 093098, 24 h",27.4
same,CD 123 % positive cells,"[1]; Exp. 093098, 24 h",52.9%
same,CD 123 MFI,"[1]; Exp. 093098, 24 h",1.99
same,αC5aR + Alexa 488 % positive cells,"[1]; Exp. 093098, 24 h",42.7%
same,αC5aR + Alexa 488 MFI,"[1]; Exp. 093098, 24 h",8.17
same,HLA-DR MFI,[1]; Exp. 093098,172.9
same,IFN-γ release by D011.10 T cells (in words),"[2]; DCs precultured 38 hours, FIG. 3",generally more potent
same,IFN-γ secretion by D011.10 cells (in words),"[2]; DCs prestimulated 15 hours, FIG. 2",high levels of IFN-γ release
same,IL-2 secretion (in words),"[2]; DCs prestimulated 15 hours, all T cell:APC ratios, FIG. 1",comparable in their ability to stimulate IL-2 secretion
same,IFN-γ secretion at T cell:APC ratio 32:1 (in words),[2]; FIG. 4,comparable to that observed with LPS
same,IL-12 (p70) in DC+D011.10 co-cultures (in words),[2]; FIG. 5,most potent
same,release of IL-12 (p40) homodimer in DC+D011.10 co-cultures (in words),[2]; FIG. 7,most potent effect
same,"T cell proliferation / DC activation, CPM 3H-thymidine response (in words)",[3],highest levels of DC activation compared to MPL® immunostimulant
same,cell surface expression of CD80 (in words),"[4]; 72 hours, titration 0.1-2 μg/ml, FIG. 15",highest level of increased cell surface expression
same,DC expression of CD83 (in words),"[4]; 72 hours, titration 0.1-2 μg/ml, FIG. 16",highest DC expression levels
same,cell surface expression of CD40 (in words),"[4]; 72 hours, titration 0.1-2 μg/ml, FIG. 17",highest elevated cell surface expression
same,concentration at which the effect is usually already maximized,[4]; [5],100 ng/mL
same,overall induction of DC maturation and co-stimulatory molecule expression (in words),[4]; [5],strongest induction of DC maturation and co-stimulatory molecule expression of all the AGPs tested
